Experimental data: PubChem BioAssay (NCI)
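Protocol summary: plate cells (96-well), add compound at 5 concentrations, incubate 48 h, interpolate endpoints linearly. TGI: concentration producing complete growth inhibition.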

What was measured:
Test in all cases: growth of human tumour cells (NCI), 48 h
[1] = test system: A549 NSCLC
[2] = test system: LOX IMVI melanoma
[3] = test system: K-562 leukemia
[4] = test system: RXF 393 renal
[5] = test system: SF-295 CNS
[6] = test system: UO-31 renal
[7] = test system: OVCAR-4 ovarian
[8] = test system: SNB-19 CNS
[9] = test system: RPMI-8226 leukemia
[10] = test system: EKVX NSCLC
[11] = test system: HCT-116 colon
[12] = test system: NCI/ADR-RES ovarian
[13] = test system: HCC-2998 colon
[14] = test system: DU-145 prostate
[15] = test system: TK-10 renal
[16] = test system: SW-620 colon
[17] = test system: U251 CNS
[18] = test system: OVCAR-8 ovarian
[19] = test system: NCI-H460 lung
[20] = test system: ACHN renal
[21] = test system: A498 renal
[22] = test system: HT29 colon
[23] = test system: SK-OV-3 ovarian
[24] = test system: HOP-92 NSCLC
[25] = test system: MCF7 breast
[26] = test system: COLO 205 colon
[27] = test system: HS 578T breast
[28] = test system: IGROV1 ovarian
[29] = test system: UACC-257 melanoma
[30] = test system: M14 melanoma
[31] = test system: HOP-62 NSCLC
[32] = test system: SK-MEL-28 melanoma
[33] = test system: SF-268 CNS
[34] = test system: SR leukemia
[35] = test system: MDA-MB-435
[36] = test system: HL-60(TB) leukemia
[37] = test system: BT-549 breast
[38] = test system: SK-MEL-2 melanoma
[39] = test system: MDA-MB-231 breast
[40] = test system: OVCAR-3 ovarian
[41] = test system: T-47D breast
[42] = test system: UACC-62 melanoma
[43] = test system: CAKI-1 renal
[44] = test system: PC-3 prostate
[45] = test system: SK-MEL-5 melanoma
[46] = test system: HCT-15 colon
[47] = test system: SF-539 CNS
[48] = test system: KM12 colon
[49] = test system: SN12C renal
[50] = test system: MOLT-4 leukemia
[51] = test system: SNB-75 CNS
[52] = test system: 786-0 renal
[53] = test system: MDA-N
[54] = test system: OVCAR-5 ovarian
[55] = test system: CCRF-CEM leukemia
[56] = test system: NCI-H522 lung
[57] = test system: NCI-H23 lung
[58] = test system: MALME-3M melanoma
[59] = test system: NCI-H226 lung

**Q.** How did the TGI [1] turn out when O=C1/C(=C/c2ccc(Cl)cc2)N=C(c2ccccc2)N1c1nc2c(Cl)cc(Cl)cc2s1 was run?
**A.** The TGI was 68.7 µM.

**Q.** What about the TGI [2] of the same molecule?
**A.** Its TGI is 53.4 µM.

**Q.** And the TGI [3]?
**A.** The TGI was > 100 µM.

**Q.** What about the TGI [4] of the same molecule?
**A.** The TGI was 62 µM.

**Q.** And the TGI [5]?
**A.** Its TGI is > 100 µM.

**Q.** And the TGI [6]?
**A.** Its TGI is 79.8 µM.

**Q.** What about the TGI [7] of the same molecule?
**A.** Its TGI is > 100 µM.

**Q.** What about the TGI [8] of the same molecule?
**A.** Its TGI is > 100 µM.

**Q.** And the TGI [9]?
**A.** Its TGI is > 100 µM.

**Q.** And the TGI [10]?
**A.** The TGI was 68.9 µM.

**Q.** And the TGI [11]?
**A.** The TGI was 50.8 µM.

**Q.** And the TGI [12]?
**A.** Its TGI is 81.3 µM.

**Q.** And the TGI [13]?
**A.** Its TGI is > 100 µM.

**Q.** And the TGI [14]?
**A.** Its TGI is > 100 µM.

**Q.** What about the TGI [15] of the same molecule?
**A.** The TGI was > 100 µM.

**Q.** What about the TGI [16] of the same molecule?
**A.** Its TGI is > 100 µM.

**Q.** And the TGI [17]?
**A.** Its TGI is 50.9 µM.

**Q.** And the TGI [18]?
**A.** The TGI was > 100 µM.

**Q.** And the TGI [19]?
**A.** Its TGI is > 100 µM.

**Q.** What about the TGI [20] of the same molecule?
**A.** The TGI was > 100 µM.

**Q.** And the TGI [21]?
**A.** The TGI was 50.2 µM.

**Q.** What about the TGI [22] of the same molecule?
**A.** Its TGI is 55.7 µM.

**Q.** What about the TGI [23] of the same molecule?
**A.** Its TGI is > 100 µM.

**Q.** What about the TGI [24] of the same molecule?
**A.** Its TGI is 71.6 µM.

**Q.** And the TGI [25]?
**A.** Its TGI is > 100 µM.

**Q.** And the TGI [26]?
**A.** The TGI was > 100 µM.

**Q.** What about the TGI [27] of the same molecule?
**A.** Its TGI is 90.1 µM.

**Q.** What about the TGI [28] of the same molecule?
**A.** The TGI was > 100 µM.

**Q.** And the TGI [29]?
**A.** Its TGI is > 100 µM.

**Q.** What about the TGI [30] of the same molecule?
**A.** The TGI was > 100 µM.

**Q.** What about the TGI [31] of the same molecule?
**A.** The TGI was > 100 µM.

**Q.** What about the TGI [32] of the same molecule?
**A.** Its TGI is > 100 µM.

**Q.** And the TGI [33]?
**A.** Its TGI is > 100 µM.

**Q.** What about the TGI [34] of the same molecule?
**A.** Its TGI is 42.5 µM.

**Q.** What about the TGI [35] of the same molecule?
**A.** The TGI was 86.2 µM.

**Q.** What about the TGI [36] of the same molecule?
**A.** The TGI was 43.1 µM.

**Q.** What about the TGI [37] of the same molecule?
**A.** The TGI was 82.9 µM.

**Q.** What about the TGI [38] of the same molecule?
**A.** Its TGI is 55.5 µM.

**Q.** What about the TGI [39] of the same molecule?
**A.** The TGI was 92.3 µM.

**Q.** And the TGI [40]?
**A.** The TGI was 50.9 µM.

**Q.** And the TGI [41]?
**A.** Its TGI is 70.2 µM.

**Q.** And the TGI [42]?
**A.** The TGI was > 100 µM.

**Q.** What about the TGI [43] of the same molecule?
**A.** The TGI was > 100 µM.

**Q.** What about the TGI [44] of the same molecule?
**A.** Its TGI is 45.9 µM.

**Q.** What about the TGI [45] of the same molecule?
**A.** Its TGI is 57.9 µM.

**Q.** And the TGI [46]?
**A.** The TGI was > 100 µM.

**Q.** What about the TGI [47] of the same molecule?
**A.** Its TGI is 46.1 µM.

**Q.** What about the TGI [48] of the same molecule?
**A.** The TGI was > 100 µM.

**Q.** What about the TGI [49] of the same molecule?
**A.** Its TGI is 57.8 µM.

**Q.** What about the TGI [50] of the same molecule?
**A.** Its TGI is 24.7 µM.

**Q.** And the TGI [51]?
**A.** The TGI was 64.9 µM.

**Q.** And the TGI [52]?
**A.** Its TGI is > 100 µM.

**Q.** And the TGI [53]?
**A.** Its TGI is 39.2 µM.

**Q.** What about the TGI [54] of the same molecule?
**A.** Its TGI is > 100 µM.

**Q.** And the TGI [55]?
**A.** The TGI was 20.7 µM.

**Q.** What does the source list for CCCC(=O)Nc1ccc2c(c1)CN1C(=O)c3ccccc3C1=N2?
**A.** TGI [1]: > 100 µM; TGI [2]: > 100 µM; TGI [5]: > 100 µM; TGI [6]: > 100 µM; TGI [7]: > 100 µM; TGI [8]: > 100 µM; TGI [9]: > 100 µM; TGI [11]: > 100 µM; TGI [12]: > 100 µM; TGI [13]: > 100 µM; TGI [14]: > 100 µM; TGI [15]: > 100 µM; TGI [16]: > 100 µM; TGI [17]: > 100 µM; TGI [56]: > 100 µM; TGI [18]: > 100 µM; TGI [19]: > 100 µM; TGI [20]: > 100 µM; TGI [22]: > 100 µM; TGI [23]: > 100 µM; TGI [24]: > 100 µM; TGI [25]: > 100 µM; TGI [57]: > 100 µM; TGI [26]: > 100 µM; TGI [27]: > 100 µM; TGI [58]: > 100 µM; TGI [28]: > 100 µM; TGI [29]: > 100 µM; TGI [30]: > 100 µM; TGI [31]: > 100 µM; TGI [32]: > 100 µM; TGI [33]: > 100 µM; TGI [34]: > 100 µM; TGI [35]: > 100 µM; TGI [36]: > 100 µM; TGI [37]: > 100 µM; TGI [38]: > 100 µM; TGI [39]: > 100 µM; TGI [40]: > 100 µM; TGI [41]: > 100 µM; TGI [42]: > 100 µM; TGI [43]: > 100 µM; TGI [44]: > 100 µM; TGI [45]: > 100 µM; TGI [59]: > 100 µM; TGI [46]: > 100 µM; TGI [47]: > 100 µM; TGI [48]: > 100 µM; TGI [49]: > 100 µM; TGI [50]: > 100 µM; TGI [51]: > 100 µM; TGI [52]: > 100 µM; TGI [53]: > 100 µM; TGI [54]: > 100 µM
